Assay results reported in patent US10906910B2, “Substituted bicyclic pyrimidine compounds with tubulin and multiple receptor inhibition” (Duquesne University of the Holy Spirit, priority 2014, dated 2021).

Columns and labels:
PC-3 = experiment: NCI 60 panel, Prostate Cancer PC-3; type: cell-based; details: Homo sapiens, read-out: Tumor cell inhibitory activity (NCI) GI50
SF-539 = experiment: NCI 60 panel, CNS Cancer SF-539; type: cell-based; details: Homo sapiens, read-out: Tumor cell inhibitory activity (NCI) GI50
OVCAR-5 = experiment: NCI 60 panel, Ovarian cancer OVCAR-5; type: cell-based; details: Homo sapiens, read-out: Tumor cell inhibitory activity (NCI) GI50
HS 578T = experiment: NCI 60 panel, Breast Cancer HS 578T; type: cell-based; details: Homo sapiens, read-out: Tumor cell inhibitory activity (NCI) GI50
HCC-2998 = experiment: NCI 60 panel, Colon Cancer HCC-2998; type: cell-based; details: Homo sapiens, read-out: Tumor cell inhibitory activity (NCI) GI50
SK-MEL-5 = experiment: NCI 60 panel, Melanoma SK-MEL-5; type: cell-based; details: Homo sapiens, read-out: Tumor cell inhibitory activity (NCI) GI50
NCI/ADR-RES = experiment: NCI 60 panel, Ovarian cancer NCI/ADR-RES; type: cell-based; details: Homo sapiens, read-out: Tumor cell inhibitory activity (NCI) GI50
OVCAR-8 = experiment: NCI 60 panel, Ovarian cancer OVCAR-8; type: cell-based; details: Homo sapiens, read-out: Tumor cell inhibitory activity (NCI) GI50
HL-60(TB) = experiment: NCI 60 panel, Leukemia HL-60(TB); type: cell-based; details: Homo sapiens, read-out: Tumor cell inhibitory activity (NCI) GI50
SF-295 = experiment: NCI 60 panel, CNS Cancer SF-295; type: cell-based; details: Homo sapiens, read-out: Tumor cell inhibitory activity (NCI) GI50
SR = experiment: NCI 60 panel, Leukemia SR; type: cell-based; details: Homo sapiens, read-out: Tumor cell inhibitory activity (NCI) GI50
HOP-62 = experiment: NCI 60 panel, NSCLC HOP-62; type: cell-based; details: Homo sapiens, read-out: Tumor cell inhibitory activity (NCI) GI50
SNB-75 = experiment: NCI 60 panel, CNS Cancer SNB-75; type: cell-based; details: Homo sapiens, read-out: Tumor cell inhibitory activity (NCI) GI50
EGFR = EGFR (Homo sapiens, UniProt P00533); experiment: EGFR kinase inhibition, whole-cell assay; type: cell-based; details: read-out: kinase inhibition IC50 [whole-cell assays] EGFR
NCI-H322M = experiment: NCI 60 panel, NSCLC NCI-H322M; type: cell-based; details: Homo sapiens, read-out: Tumor cell inhibitory activity (NCI) GI50
HOP-92 = experiment: NCI 60 panel, NSCLC HOP-92; type: cell-based; details: Homo sapiens, read-out: Tumor cell inhibitory activity (NCI) GI50
SK-MEL-28 = experiment: NCI 60 panel, Melanoma SK-MEL-28; type: cell-based; details: Homo sapiens, read-out: Tumor cell inhibitory activity (NCI) GI50
U251 = experiment: NCI 60 panel, CNS Cancer U251; type: cell-based; details: Homo sapiens, U-251, read-out: Tumor cell inhibitory activity (NCI) GI50
SN12C = experiment: NCI 60 panel, Renal Cancer SN12C; type: cell-based; details: Homo sapiens, read-out: Tumor cell inhibitory activity (NCI) GI50
CCRF-CEM = experiment: NCI 60 panel, Leukemia CCRF-CEM; type: cell-based; details: Homo sapiens, read-out: Tumor cell inhibitory activity (NCI) GI50
BT-549 = experiment: NCI 60 panel, Breast Cancer BT-549; type: cell-based; details: Homo sapiens, read-out: Tumor cell inhibitory activity (NCI) GI50
HCT-116 = experiment: NCI 60 panel, Colon Cancer HCT-116; type: cell-based; details: Homo sapiens, read-out: Tumor cell inhibitory activity (NCI) GI50
CAKI-1 = experiment: NCI 60 panel, Renal Cancer CAKI-1; type: cell-based; details: Homo sapiens, read-out: Tumor cell inhibitory activity (NCI) GI50
PDGFRβ = PDGFRβ (Homo sapiens, UniProt P09619); experiment: PDGFRβ kinase inhibition, whole-cell assay; type: cell-based
K-562 = experiment: NCI 60 panel, Leukemia K-562; type: cell-based; details: Homo sapiens, K562, read-out: Tumor cell inhibitory activity (NCI) GI50
KM12 = experiment: NCI 60 panel, Colon Cancer KM12; type: cell-based; details: Homo sapiens, read-out: Tumor cell inhibitory activity (NCI) GI50
HCT-15 = experiment: NCI 60 panel, Colon Cancer HCT-15; type: cell-based; details: Homo sapiens, read-out: Tumor cell inhibitory activity (NCI) GI50
ACHN = experiment: NCI 60 panel, Renal Cancer ACHN; type: cell-based; details: Homo sapiens, read-out: Tumor cell inhibitory activity (NCI) GI50
A431 cells = experiment: A431 cytotoxicity; type: cell-based; details: Homo sapiens, A-431
wild type HeLa cells = experiment: HeLa cytotoxicity, wild type; type: cell-based; details: Homo sapiens
UACC-62 = experiment: NCI 60 panel, Melanoma UACC-62; type: cell-based; details: Homo sapiens, read-out: Tumor cell inhibitory activity (NCI) GI50
786-0 = experiment: NCI 60 panel, Renal Cancer 786-0; type: cell-based; details: Homo sapiens, read-out: Tumor cell inhibitory activity (NCI) GI50
NCI-H23 = experiment: NCI 60 panel, NSCLC NCI-H23; type: cell-based; details: Homo sapiens, read-out: Tumor cell inhibitory activity (NCI) GI50
SF-268 = experiment: NCI 60 panel, CNS Cancer SF-268; type: cell-based; details: Homo sapiens, read-out: Tumor cell inhibitory activity (NCI) GI50
[1] = test system: tubulin (colchicine site); experiment: inhibition of [3H]colchicine binding to tubulin; parameters: species or system bovine
M14 = experiment: NCI 60 panel, Melanoma M14; type: cell-based; details: Homo sapiens, read-out: Tumor cell inhibitory activity (NCI) GI50
NCI-H460 = experiment: NCI 60 panel, NSCLC NCI-H460; type: cell-based; details: Homo sapiens, read-out: Tumor cell inhibitory activity (NCI) GI50
NCI-H226 = experiment: NCI 60 panel, NSCLC NCI-H226; type: cell-based; details: Homo sapiens, read-out: Tumor cell inhibitory activity (NCI) GI50
RPMI-8226 = experiment: NCI 60 panel, Leukemia RPMI-8226; type: cell-based; details: Homo sapiens, read-out: Tumor cell inhibitory activity (NCI) GI50
UACC-257 = experiment: NCI 60 panel, Melanoma UACC-257; type: cell-based; details: Homo sapiens, read-out: Tumor cell inhibitory activity (NCI) GI50
MALME-3M = experiment: NCI 60 panel, Melanoma MALME-3M; type: cell-based; details: Homo sapiens, read-out: Tumor cell inhibitory activity (NCI) GI50
bovine brain tubulin = experiment: inhibition of tubulin assembly; type: biochemical
MCF7 = experiment: NCI 60 panel, Breast Cancer MCF7; type: cell-based; details: Homo sapiens, read-out: Tumor cell inhibitory activity (NCI) GI50
NCI-H522 = experiment: NCI 60 panel, NSCLC NCI-H522; type: cell-based; details: Homo sapiens, read-out: Tumor cell inhibitory activity (NCI) GI50
LOX IMVI = experiment: NCI 60 panel, Melanoma LOX IMVI; type: cell-based; details: Homo sapiens, read-out: Tumor cell inhibitory activity (NCI) GI50
OVCAR-3 = experiment: NCI 60 panel, Ovarian cancer OVCAR-3; type: cell-based; details: Homo sapiens, read-out: Tumor cell inhibitory activity (NCI) GI50
[2] = test system: NCI 60 tumor cell line panel; experiment: NCI 60 tumor cell line panel, overall; type: cell-based
MOLT-4 = experiment: NCI 60 panel, Leukemia MOLT-4; type: cell-based; details: Homo sapiens, read-out: Tumor cell inhibitory activity (NCI) GI50
MDA-MB-468 = experiment: NCI 60 panel, Breast Cancer MDA-MB-468; type: cell-based; details: Homo sapiens, read-out: Tumor cell inhibitory activity (NCI) GI50
SK-OV-3 = experiment: NCI 60 panel, Ovarian cancer SK-OV-3; type: cell-based; details: Homo sapiens, read-out: Tumor cell inhibitory activity (NCI) GI50
A498 = experiment: NCI 60 panel, Renal Cancer A498; type: cell-based; details: Homo sapiens, read-out: Tumor cell inhibitory activity (NCI) GI50
[3] = test system: blood vessel formation in the chicken chorioallantoic membrane (CAM); experiment: chicken chorioallantoic membrane (CAM) antiangiogenic activity assay; type: in vivo; details: Gallus gallus
[4] = compared with combretastatin A-4

Sequence of PDGFRβ (P09619 33-1106, species assumed): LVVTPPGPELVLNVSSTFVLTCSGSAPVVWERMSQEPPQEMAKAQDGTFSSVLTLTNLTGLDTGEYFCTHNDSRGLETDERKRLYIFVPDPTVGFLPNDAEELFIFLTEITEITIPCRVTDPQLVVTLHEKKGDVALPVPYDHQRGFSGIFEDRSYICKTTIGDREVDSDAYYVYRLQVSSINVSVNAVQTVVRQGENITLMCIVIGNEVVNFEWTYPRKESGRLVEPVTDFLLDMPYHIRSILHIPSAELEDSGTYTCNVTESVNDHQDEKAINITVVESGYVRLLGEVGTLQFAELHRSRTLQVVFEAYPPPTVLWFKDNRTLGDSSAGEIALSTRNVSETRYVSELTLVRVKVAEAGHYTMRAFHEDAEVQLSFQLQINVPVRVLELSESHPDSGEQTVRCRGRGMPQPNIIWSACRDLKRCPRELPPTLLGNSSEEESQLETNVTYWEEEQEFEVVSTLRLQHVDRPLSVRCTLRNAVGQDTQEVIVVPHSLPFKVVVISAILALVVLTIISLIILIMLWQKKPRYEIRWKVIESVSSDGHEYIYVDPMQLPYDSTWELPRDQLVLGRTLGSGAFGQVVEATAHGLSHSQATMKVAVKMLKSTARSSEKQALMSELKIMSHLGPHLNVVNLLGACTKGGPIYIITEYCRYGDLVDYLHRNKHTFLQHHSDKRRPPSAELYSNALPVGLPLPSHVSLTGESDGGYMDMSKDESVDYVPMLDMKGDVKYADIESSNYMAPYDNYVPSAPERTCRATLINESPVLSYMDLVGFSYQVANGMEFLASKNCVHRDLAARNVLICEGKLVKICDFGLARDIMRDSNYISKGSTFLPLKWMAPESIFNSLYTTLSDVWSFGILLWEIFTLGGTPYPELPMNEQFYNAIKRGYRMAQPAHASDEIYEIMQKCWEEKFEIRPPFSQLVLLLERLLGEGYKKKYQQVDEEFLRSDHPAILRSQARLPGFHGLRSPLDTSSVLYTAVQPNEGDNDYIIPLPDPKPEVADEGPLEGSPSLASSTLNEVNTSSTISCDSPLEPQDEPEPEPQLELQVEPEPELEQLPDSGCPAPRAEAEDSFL
Sequence of EGFR (P00533 25-1210, species assumed): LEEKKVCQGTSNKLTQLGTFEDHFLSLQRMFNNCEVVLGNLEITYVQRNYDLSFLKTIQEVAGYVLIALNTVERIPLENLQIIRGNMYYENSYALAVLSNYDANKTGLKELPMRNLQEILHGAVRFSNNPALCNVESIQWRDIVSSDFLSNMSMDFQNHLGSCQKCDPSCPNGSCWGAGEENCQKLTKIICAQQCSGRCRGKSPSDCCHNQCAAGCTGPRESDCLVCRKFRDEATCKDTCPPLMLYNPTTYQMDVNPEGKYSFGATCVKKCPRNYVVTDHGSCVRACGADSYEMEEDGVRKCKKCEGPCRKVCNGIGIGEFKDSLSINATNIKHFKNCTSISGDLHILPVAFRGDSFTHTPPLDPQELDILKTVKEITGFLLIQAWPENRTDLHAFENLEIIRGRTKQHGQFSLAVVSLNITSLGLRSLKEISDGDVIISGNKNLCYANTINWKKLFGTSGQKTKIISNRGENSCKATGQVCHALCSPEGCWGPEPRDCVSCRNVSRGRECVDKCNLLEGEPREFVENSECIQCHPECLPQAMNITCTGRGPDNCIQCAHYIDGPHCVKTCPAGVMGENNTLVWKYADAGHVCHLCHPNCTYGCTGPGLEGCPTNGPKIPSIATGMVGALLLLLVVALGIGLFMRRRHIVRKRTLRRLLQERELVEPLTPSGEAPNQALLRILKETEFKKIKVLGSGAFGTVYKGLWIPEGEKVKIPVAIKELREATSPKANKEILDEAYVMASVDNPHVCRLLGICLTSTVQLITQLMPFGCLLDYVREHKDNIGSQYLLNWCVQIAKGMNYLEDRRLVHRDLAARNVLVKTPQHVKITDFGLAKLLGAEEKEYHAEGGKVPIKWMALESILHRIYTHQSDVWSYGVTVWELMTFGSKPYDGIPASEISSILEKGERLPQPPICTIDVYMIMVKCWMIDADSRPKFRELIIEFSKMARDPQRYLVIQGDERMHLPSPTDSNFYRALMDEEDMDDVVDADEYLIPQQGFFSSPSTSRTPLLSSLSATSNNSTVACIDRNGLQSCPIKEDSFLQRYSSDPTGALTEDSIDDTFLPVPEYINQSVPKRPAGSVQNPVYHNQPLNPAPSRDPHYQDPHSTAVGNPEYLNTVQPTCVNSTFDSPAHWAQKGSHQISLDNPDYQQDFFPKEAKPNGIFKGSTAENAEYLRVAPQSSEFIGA

SMILES: COc1ccc(N(C)c2nc(C)nc3c(Cc4ccccc4)cn(C)c23)cc1 [Compound 4, 7-Benzyl-N-(4-methoxyphenyl)-N,2,5-trimethyl-5H-pyrrolo[3,2-d]pyrimidin-4-amine]
- GI50 (PC-3): 0.0496 µM
- GI50 (SF-539): 0.0254 µM
- GI50 (OVCAR-5): 0.269 µM
- GI50 (HS 578T): 0.0623 µM
- GI50 (HCC-2998): 0.0711 µM
- GI50 (SK-MEL-5): 0.0542 µM
- GI50 (NCI/ADR-RES): 0.0328 µM
- GI50 (OVCAR-8): 0.0491 µM
- GI50 (HL-60(TB)): 0.0268 µM
- GI50 (SF-295): 0.0304 µM
- GI50 (SR): 0.0338 µM
- GI50 (HOP-62): 0.0478 µM
- GI50 (SNB-75): 0.0278 µM
- IC50 (EGFR): 0.0023 ± 0.0003 µM
- GI50 (NCI-H322M): 0.0736 µM
- GI50 (HOP-92): 0.0471 µM
- GI50 (SK-MEL-28): 0.0487 µM
- GI50 (U251): 0.0443 µM
- GI50 (SN12C): 0.0887 µM
- GI50 (CCRF-CEM): 0.0335 µM
- GI50 (BT-549): 0.0482 µM
- GI50 (HCT-116): 0.035 µM
- GI50 (CAKI-1): 0.0566 µM
- potency against PDGFRβ, in words (PDGFRβ): potencies comparable with DMBI
- IC50 (PDGFRβ; whole-cell assay, read-out: kinase inhibition IC50 [whole-cell assays] PDGFRβ): 0.0103 µM
- GI50 (K-562): 0.0337 µM
- GI50 (KM12): 0.0445 µM
- GI50 (HCT-15): 0.0381 µM
- GI50 (ACHN): 0.172 µM
- IC50 (A431 cells): 0.0012 µM
- IC50 (wild type HeLa cells): 0.014 ± 0.002 µM
- GI50 (UACC-62): 0.475 µM
- GI50 (786-0): 0.0932 µM
- GI50 (NCI-H23): 0.0458 µM
- GI50 (SF-268): 0.35 µM
- inhibition of colchicine binding (1 μM inhibitor) ([1]; 1 μM inhibitor, [3H]colchicine, in % (unit assumed)): 73 ± 3
- inhibition of colchicine binding (5 μM inhibitor) ([1]; 5 μM inhibitor, [3H]colchicine, in % (unit assumed)): 92 ± 0.2
- inhibition of [3H]colchicine binding to tubulin, in words [1, 4]: potent inhibitors
- GI50 (M14): 0.0295 µM
- GI50 (NCI-H460): 0.0387 µM
- GI50 (NCI-H226): 0.304 µM
- GI50 (RPMI-8226): 0.0369 µM
- GI50 (UACC-257): 0.0782 µM
- GI50 (MALME-3M): 0.0177 µM
- IC50 (bovine brain tubulin; bovine tubulin): 0.48 ± 0.008 µM
- inhibition of bovine tubulin assembly, in words (bovine brain tubulin; [4]): effective and potent inhibitors
- GI50 (MCF7): 0.0333 µM
- GI50 (NCI-H522): 0.0239 µM
- GI50 (LOX IMVI): 0.0588 µM
- GI50 (OVCAR-3): 0.0352 µM
- GI50 across the NCI 60 tumor cell line panel, in words [2]: 2- to 3-digit nanomolar
- GI50 (MOLT-4): 0.0508 µM
- GI50 (MDA-MB-468): 0.0301 µM
- GI50 (SK-OV-3): 0.0454 µM
- GI50 (A498): 0.0202 µM
- IC50 [3]: 2.2 ± 0.4 µM
